According to patent US20210032374A1, “ISOLATED SAPOSHNIKOVIA DIVARICATA POLYSACCHARIDE AND USE THEREOF” (SHANGHAI GREEN VALLEY PHARMACEUTICAL CO., LTD., priority 2018, published 2021):

Assays:
Format in all cases: in vivo, Kunming mice
[1] = tested on: mice with diabetes mellitus induced by streptozotocin (STZ); assay: Fast blood glucose (FBG) in mice with STZ-induced diabetes mellitus; conditions: 25 mg/kg oral gavage daily, STZ diabetic mice, x ± S.D, n = 10
Procedure: Experimental animals: healthy male Kunming mice of clean grade (weighed 18-22 g, provided by Shanghai SLAC Laboratory Animal Co., Ltd.). Experimental method: […] The diabetes mellitus model mice were randomly grouped into a model group (STZ 120 mg/kg), a low-dose Saposhnikovia divaricata polysaccharide group (SDP 50 mg/kg), a high-dose Saposhnikovia divaricata polysaccharide (SDP 200 mg/kg) group, and a positive drug (Glibenclamide, GLI 25 mg/kg) control group, 10 mice per group. For each dosing group, the mice were dosed by oral gavage at 0.2 ml/10 g body weight at 8:00 am every day. The normal control group and the model group were given an equal volume of distilled water. During the experiment, the mice in each group were allowed to access to water ad arbitrium. The FBG and body weight were measured every 10 days. 30 days after the dosing, the mice were treated, and the following indexes were measured.

[2] = tested on: mice with diabetes mellitus induced by streptozotocin (STZ); assay: Glucose tolerance (i.p. glucose load) in mice with STZ-induced diabetes mellitus; conditions: 25 mg/kg, x ± S.D, n = 10
Procedure: Experimental method: The mice were kept at a temperature of 20±2° C. and a humidity of 50±5% under 12 hours of light and 12 hours of darkness for 3 days, during which the mice were allowed to access to food and water ad arbitrium. 10 healthy mice were selected as the normal control group (Control). The remaining mice were intraperitoneally injected with a streptozotocin (STZ) solution at 0.2 ml/10 g body weight. 72 h later, the fast blood glucose (FBG) of the mice was measured. The mice having an FBG value higher than 11.1 mmol/L and lower than 25 mmol/L were selected as diabetes mellitus model mice. The diabetes mellitus model mice were randomly grouped into a model group (STZ 120 mg/kg), a low-dose Saposhnikovia divaricata polysaccharide group (SDP 50 mg/kg), a high-dose Saposhnikovia divaricata polysaccharide (SDP 200 mg/kg) group, and a positive drug (Glibenclamide, GLI 25 mg/kg) control group, 10 mice per group. For each dosing group, the mice were dosed by oral gavage at 0.2 ml/10 g body weight at 8:00 am every day. The normal control group and the model group were given an equal volume of distilled water. During the experiment, the mice in each group were allowed to access to water ad arbitrium. The FBG and body weight were measured every 10 days. 30 days after the dosing, the mice were treated, and the following indexes were measured.
(1) Glucose tolerance: The mice were fasted at 8:00 the day before the end of the experiment. After 4 h, blood was collected from the orbit, and FBG was measured as the blood glucose level before administration of glucose (0 h). Then, all mice were intraperitoneally injected with a 10% glucose solution at 0.2 ml/10 g body weight. 0.5 hour (0.5 h) and 2 hours (2 h) after intraperitoneal injection of glucose, blood was collected from the orbit, and the blood glucose value was measured. The area under the blood glucose curve (AUC) was calculated according to the following equation: […]

[3] = tested on: mice with hyperlipoidemia; assay: Liver TC and TG contents and liver weight coefficient in mice with hyperlipoidemia; conditions: positive drug 40 mg/kg
From the text: A hyperlipoidemia model was established with reference to the methods as described in the references (Liyan Sun, Zhenliang Liu, Jinxia Sun, et al., Effect of Imperata cylindrica polysaccharide on hypoxia tolerance in mice, China Journal of Hospital Pharmacy, 2008, 28(2): 96-99; Bin Leng, Intervention of immunoregulation and renal fibrosis by Imperata cylindrica polysaccharide in rats with IgA nephropathy, Dissertations of Guilin Medical University, 2013; Shijing Lv, Qicai Long, Deyuan He, et al., Regulation of lymphocyte proliferation and T cell subpopulation by Imperata cylindrica polysaccharide in patients with hepatitis B, [Conference Paper] 2001—The Second National Academic Conference on Immunology of Traditional Chinese Medicine). Experimental method: The mice were kept at a temperature of 20±2° C. and a humidity of 50±5% under 12 hours of light and 12 hours of darkness for 3 days, during which the mice were allowed to access to food and water ad arbitrium. […] The serum TC, TG, LDL-C and HDL-C levels were measured. A part of the liver tissue of the mice was took, homogenized, and measured for liver TC and TG contents, as well as SOD and GSH-px activities and MDA content. […]

Structure (SMILES) | FBG ([1]; Day 0) | FBG ([1]; Day 10) | FBG ([1]; Day 20) | FBG ([1]; Day 30) | Blood glucose ([2]; 0 h (before glucose), after 30 days dosing) | Blood glucose ([2]; 0.5 h after i.p. glucose) | Blood glucose ([2]; 2 h after i.p. glucose) | Area under the curve (AUC) ([2]; blood glucose curve 0-2 h) | liver weight coefficient [3] | liver TC content ([3]; vs high-fat model group, P<0.01)
COc1ccc(Cl)cc1C(=O)NCCc1ccc(S(=O)(=O)NC(=O)NC2CCCCC2)cc1 [GLI, glibenclamide] | 12.58 ± 2.69 mmol/L | 15.95 ± 1.57 mmol/L | 18.56 ± 3.02 mmol/L | 20.44 ± 2.25 mmol/L | 20.44 ± 2.25 mmol/1 | 29.63 ± 2.24 mmol/1 | 27.60 ± 2.04 mmol/1 | 40.62 ± 2.86 |  | 
CC(C)OC(=O)C(C)(C)Oc1ccc(C(=O)c2ccc(Cl)cc2)cc1 [Lipanthyl, Fenofibrate] |  |  |  |  |  |  |  |  | significantly increased | significantly lower
